Assay results taken from PubChem BioAssay AID1963863 (Molecular Pharmacology Branch, DTP, NCI, 2024).
“And” between values parts separate entries of the source, which are not always exact repeats. Equal values may be shown once.

Test system: 931267-113-T-J1-PDC KRAS spheroid with HUVEC/MSC, viability
Experiment: Anticancer human tumor 931267-113-T-J1-PDC patient-derived colon adenocarcinoma cell line growth inhibition [KRAS2]
Details: for viability, T/C: stronger effect = lower value
In short: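 KRAS-mutant tumor cells were grown as spheroids with HUVEC endothelial cells and human MSCs as stroma. Targeted agents were tested alone and with KRAS pathway inhibitors. Doses started at or near clinical Cmax, or 10 microM, descending half-log.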

[1] = curve of first compound, second compound 0.1 µM
[2] = curve of first compound, second compound 0.316 µM
[3] = curve of first compound, second compound 1 µM
[4] = curve of first compound, second compound 3.16 µM
[5] = curve of first compound, second compound 10 µM
[6] = second compound 0.1 µM, first compound 0.0316 µM
[7] = second compound 0.1 µM, first compound 0.1 µM
[8] = second compound 0.1 µM, first compound 0.316 µM
[9] = second compound 0.1 µM, first compound 1 µM
[10] = second compound 0.1 µM, first compound 3.16 µM
[11] = second compound 0.1 µM, first compound 10 µM
[12] = second compound 0.316 µM, first compound 0.0316 µM
[13] = second compound 0.316 µM, first compound 0.1 µM
[14] = second compound 0.316 µM, first compound 0.316 µM
[15] = second compound 0.316 µM, first compound 1 µM
[16] = second compound 0.316 µM, first compound 3.16 µM
[17] = second compound 0.316 µM, first compound 10 µM
[18] = second compound 1 µM, first compound 0.0316 µM
[19] = second compound 1 µM, first compound 0.1 µM
[20] = second compound 1 µM, first compound 0.316 µM
[21] = second compound 1 µM, first compound 1 µM
[22] = second compound 1 µM, first compound 3.16 µM
[23] = second compound 1 µM, first compound 10 µM
[24] = second compound 3.16 µM, first compound 0.0316 µM
[25] = second compound 3.16 µM, first compound 0.1 µM
[26] = second compound 3.16 µM, first compound 0.316 µM
[27] = second compound 3.16 µM, first compound 1 µM
[28] = second compound 3.16 µM, first compound 3.16 µM
[29] = second compound 3.16 µM, first compound 10 µM
[30] = second compound 10 µM, first compound 0.0316 µM
[31] = second compound 10 µM, first compound 0.1 µM
[32] = second compound 10 µM, first compound 0.316 µM
[33] = second compound 10 µM, first compound 1 µM
[34] = second compound 10 µM, first compound 3.16 µM
[35] = second compound 10 µM, first compound 10 µM
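Also: compound exposure lasted 7 days before the readout.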
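For viability, T/C in this document: 100% = DMSO vehicle control viability.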

| SMILES | IC50 [1] [nM] | IC50 [2] [nM] | IC50 [3] [nM] | IC50 [4] [nM] | IC50 [5] [nM] | viability, T/C [6] [%] | viability, T/C [7] [%] | viability, T/C [8] [%] | viability, T/C [9] [%] | viability, T/C [10] [%] | viability, T/C [12] [%] | viability, T/C [13] [%] | viability, T/C [14] [%] | viability, T/C [15] [%] | viability, T/C [16] [%] | viability, T/C [18] [%] | viability, T/C [19] [%] | viability, T/C [20] [%] | viability, T/C [21] [%] | viability, T/C [22] [%] | further results |
| --- | --- | --- | --- | --- | --- | --- | --- | --- | --- | --- | --- | --- | --- | --- | --- | --- | --- | --- | --- | --- | --- |
| COC(=O)c1ccc2c(C(=Nc3ccc(N(C)C(=O)CN4CCN(C)CC4)cc3)c3ccccc3)c(O)[nH]c2c1 + C=CC(=O)N1CCN(c2nc(=O)n(-c3c(C)ccnc3C(C)C)c3nc(-c4c(O)cccc4F)c(F)cc23)C(C)C1 | 1340 | 1080 | 1050 | 922 | 984 | 107 | 100 | 90.5 | 67 | 0.52 | 120 | 103 | 84.8 | 63.4 | 0.81 | 129 | 116 | 82.8 | 65.8 | 0.56 | viability, T/C [11]: 0.48%; viability, T/C [17]: 0.29%; viability, T/C [23]: 0.21%; viability, T/C [24]: 121%; viability, T/C [25]: 134%; viability, T/C [26]: 82.8%; viability, T/C [27]: 56.4%; viability, T/C [28]: 0.33%; viability, T/C [29]: 0.22%; viability, T/C [30]: 119%; viability, T/C [31]: 103%; viability, T/C [32]: 103%; viability, T/C [33]: 50%; viability, T/C [34]: 0.49%; viability, T/C [35]: 0.31% |
| CC1OCC2(CCN(c3cnc(Sc4ccnc(N)c4Cl)c(N)n3)CC2)C1N (configuration not stated) |  |  |  |  |  |  |  |  |  |  |  |  |  |  |  |  |  |  |  |  | viability, T/C (compound 0.0316 µM): 97.1% and 83.5% and 83%; IC50 (compound alone, run of 08/19/2021): > 10000 nM; IC50 (compound alone, run of 08/26/2021): > 10000 nM; IC50 (compound alone, run of 09/02/2021): > 10000 nM; IC50 (curve of compound): > 10000 nM |
| CCN1CCN(Cc2ccc(Nc3ncc(F)c(-c4cc(F)c5nc(C)n(C(C)C)c5c4)n3)nc2)CC1 |  |  |  |  |  |  |  |  |  |  |  |  |  |  |  |  |  |  |  |  | viability, T/C (compound 0.00316 µM): 85.5% [middle of 5 runs]; viability, T/C (compound 0.01 µM): 88.8% [middle of 5 runs]; viability, T/C (compound 0.0316 µM): 70.4% [middle of 5 runs]; viability, T/C (compound 0.1 µM): 70% [middle of 5 runs]; viability, T/C (compound 0.316 µM): 65% [middle of 5 runs]; viability, T/C (compound 1 µM): 48.4% [middle of 5 runs]; IC50 (curve of compound): > 1000 nM and 595 nM and 960 nM |
| CC1(C)CCC(CN2CCN(c3ccc(C(=O)NS(=O)(=O)c4ccc(NCC5CCOCC5)c([N+](=O)[O-])c4)c(Oc4cnc5[nH]ccc5c4)c3)CC2)=C(c2ccc(Cl)cc2)C1 + C=CC(=O)N1CCN(c2nc(=O)n(-c3c(C)ccnc3C(C)C)c3nc(-c4c(O)cccc4F)c(F)cc23)C(C)C1 | 2240 | 1820 | 1990 | 2120 | 1770 | 107 | 85 | 84.2 | 103 | 30.8 | 86.8 | 102 | 96.8 | 71.6 | 29.5 | 86.5 | 104 | 79.9 | 91.7 | 22.5 | viability, T/C [11]: 5.11%; viability, T/C [17]: 10.2%; viability, T/C [23]: 2.37%; viability, T/C [24]: 76.4%; viability, T/C [25]: 98%; viability, T/C [26]: 109%; viability, T/C [27]: 99%; viability, T/C [28]: 25.7%; viability, T/C [29]: 8.95%; viability, T/C [30]: 98.5%; viability, T/C [31]: 75.2%; viability, T/C [32]: 83.1%; viability, T/C [33]: 76.5%; viability, T/C [34]: 23.1%; viability, T/C [35]: 3.34% |
| CC1COCCN1c1cc(-c2ccnn2C)c2ccnc(-c3ccn[nH]3)c2n1 (configuration not stated) + CC1OCC2(CCN(c3cnc(Sc4ccnc(N)c4Cl)c(N)n3)CC2)C1N | 42.4 | 45.3 | 44.3 | 33.2 | 59.9 | 57.3 | 28.9 | 16.6 | 16.9 | 19.5 | 63.4 | 20.6 | 15.6 | 19 | 18.6 | 58.5 | 29.6 | 18.1 | 18.5 | 13.6 | viability, T/C (second compound 0.1 µM, first compound 0.01 µM): 92.3%; viability, T/C (second compound 0.316 µM, first compound 0.01 µM): 81.2%; viability, T/C (second compound 1 µM, first compound 0.01 µM): 91.1%; viability, T/C (second compound 3.16 µM, first compound 0.01 µM): 80.6%; viability, T/C [24]: 50.4%; viability, T/C [25]: 29.3%; viability, T/C [26]: 16.1%; viability, T/C [27]: 15.4%; viability, T/C [28]: 18.4%; viability, T/C (second compound 10 µM, first compound 0.01 µM): 86.9%; viability, T/C [30]: 80.5%; viability, T/C [31]: 25.6%; viability, T/C [32]: 14.4%; viability, T/C [33]: 13.9%; viability, T/C [34]: 15.6% |
| O=C(c1cc(Cc2n[nH]c(=O)c3ccccc23)ccc1F)N1CCN(C(=O)C2CC2)CC1 + CC1OCC2(CCN(c3cnc(Sc4ccnc(N)c4Cl)c(N)n3)CC2)C1N | > 10000 | > 10000 | > 10000 | > 10000 | 3160 | 72.8 | 70.8 | 72.9 | 68.4 | 81.5 | 64.2 | 72.7 | 59.1 | 66.9 | 54.8 | 86.6 | 89.5 | 89.1 | 86 | 73.3 | viability, T/C [11]: 73.5%; viability, T/C [17]: 62.4%; viability, T/C [23]: 89.1%; viability, T/C [24]: 56.6%; viability, T/C [25]: 48%; viability, T/C [26]: 52.6%; viability, T/C [27]: 64.6%; viability, T/C [28]: 56.4%; viability, T/C [29]: 50.8%; viability, T/C [30]: 59.9%; viability, T/C [31]: 60.2%; viability, T/C [32]: 99%; viability, T/C [33]: 46%; viability, T/C [34]: 63.9%; viability, T/C [35]: 51.9% |
| CC1(C)CCC(CN2CCN(c3ccc(C(=O)NS(=O)(=O)c4ccc(NCC5CCOCC5)c([N+](=O)[O-])c4)c(Oc4cnc5[nH]ccc5c4)c3)CC2)=C(c2ccc(Cl)cc2)C1 + COc1cc2nc(C)nc(NC(C)c3cc(N)cc(C(F)(F)F)c3)c2cc1OC1CCOC1 | 2100 | 1950 | 1820 | 1650 | < 31.6 | 89 | 88.1 | 90.1 | 95.8 | 27.7 | 86.2 | 90.3 | 84 | 83 | 26.3 | 76.5 | 93.4 | 76.1 | 84.9 | 19.6 | viability, T/C [11]: 8.52%; viability, T/C [17]: 5.92%; viability, T/C [23]: 2.71%; viability, T/C [24]: 61.9%; viability, T/C [25]: 86.5%; viability, T/C [26]: 60.2%; viability, T/C [27]: 69.8%; viability, T/C [28]: 24.3%; viability, T/C [29]: 4.36%; viability, T/C [30]: 0.9%; viability, T/C [31]: 2.22%; viability, T/C [32]: 0.8%; viability, T/C [33]: 1.14%; viability, T/C [34]: 2.02%; viability, T/C [35]: 0.84% |
| Cn1nccc1Nc1nccc(-c2cc3c(s2)C(C)(C)N(CCN2CCOCC2)C3=O)n1 + COc1cc2nc(C)nc(NC(C)c3cc(N)cc(C(F)(F)F)c3)c2cc1OC1CCOC1 | 451 | 517 | 464 | 229 | < 31.6 | 80.2 | 95.3 | 54 | 29.5 | 9.12 | 84.6 | 88.2 | 62.7 | 31.2 | 4.2 | 79.8 | 73.6 | 62.6 | 26.2 | 8.33 | viability, T/C [11]: 3.49%; viability, T/C [17]: 2.13%; viability, T/C [23]: 2.61%; viability, T/C [24]: 71.3%; viability, T/C [25]: 68.4%; viability, T/C [26]: 42.4%; viability, T/C [27]: 15.5%; viability, T/C [28]: 3.42%; viability, T/C [29]: 2.28%; viability, T/C [30]: 3.64%; viability, T/C [31]: 2.94%; viability, T/C [32]: 2.42%; viability, T/C [33]: 1.97%; viability, T/C [34]: 0.91%; viability, T/C [35]: 0.28% |
